Assay [1] has as its system 5-lipoxygenase. Put plainly: inhibition of 5-lipoxygenase activity in polymorphonuclear rat leucocytes (LTB4 formation). The assay is classed as cell-based. The following applies: 10^-5 mol/l; 22° C. An excerpt: 4. In vitro determination of 5-lipoxygenase inhibition. 4a. In vitro determination of inhibition of 5-lipoxygenase activity in polymorphonuclear rat leucocytes. Arachidonic acid contained in cell membranes is released after activiation of the polymorphonuclear leucocytes (=PMN). During the course of this, under the action of the enzyme 5-lipoxygenase (=5-LO) arachidonic acid metabolites are synthesized which can be converted to leucotriene B4 (=LTB4) by LTA4 hydrolase. LTB4 is a principal metabolite of the arachidonic acid metabolism taking place on activation of the enzyme 5-LO by the inflammatory stimulus in the cell membrane. In in vitro systems, this metabolite is secreted from PMNs. […] To accomplish this, the content of LTB4 in a culture medium of rat peritoneal PMNs was determined after stimulation by calcimycin (=calcium-ionophore A23187) such as described by […] et al., Can. J. Physiol. Pharmacol. 67 (1989), 17. A cell suspension containing peritoneal PMNs of male Sprague-Dawley rats (body weight 200 to 250 g) was obtained in a known manner as follows: 6 ml of a solution containing 27.9 g/l of sodium thioglycolate were injected i.p. into the animals in order to induce the PMN invasion due to this inflammatory stimulus. After 22 hours, the animals were sacrificed by means of lethal ether anaesthesia. 20 ml of a Hank's salt solution (=Hank's Balanced Salt Solution=HBSS), but without Ca^++ and Mg^++ ions and with 0.2% by weight of sodium citrate, were then injected into the abdominal cavity. The suspension of accumulated cells was removed from the abdominal cavity and the cells were separated by centrifugation (10 minutes at 400×g). The cells were purified by repeated centrifugation in the presence of Ficoll-Paque®, (=metrizoic acid preparation, […], manufacturer Pharmacia), then washed twice with HBSS containing Ca^++ and Mg^++ ions and resuspended in HBSS containing Ca^ ++ and Mg^++ ions and buffered with 10 mM HEPES (=hydroxyethylpiperazinoethanesulfonic acid). In order to carry out the tests, samples of 0.7 ml of the PMN suspension (=0.5×10^6 cells) in each case were incubated for 15 minutes at 22° C. in plastic tubes containing 10 μM of the test substance in dimethylformamide or, as a control experiment, only containing dimethylformamide. The LTB4 synthesis was initiated in the samples by addition of calcimycin (final concentration 5 μm), and the samples were incubated for 10 minutes at 22° C. Only solvent was added to blank control samples. After 10 minutes, the reaction was terminated by addition of 0.3 ml of cold methanol. The samples were kept for 1 hour at 4° C. and then centrifuged (5 minutes at 10,000×g). The supernatant liquid was investigated to determine its LTB4 content by means of reverse phase high-pressure liquid chromatography (=reverse phase HPLC). […] The LTB4 was identified by comparison with authentic standard solutions eluting at the same time and determined at a wavelength of 270 nm. The LTB4 contents are determined from comparison with calibrated standard solutions, and from this the inhibitory activity of the test substances was calculated in % inhibition of the LTB4 synthesis in comparison with the control samples containing no test substance.

Assay [2] has as its system P.A.F.-induced aggregation of blood platelets. As to the kind of experiment: anti-P.A.F. action in vitro (P.A.F.-induced platelet aggregation). The assay is classed as cell-based. Conditions: Oryctolagus cuniculus, 10^-5 mole/liter, read-out: Anti-P.A.F. activity in vitro, % inhibition of the P.A.F.-induced aggregation of blood platelets from rabbit blood. The source says:
3. Determination of the anti-P.A.F. action in vitro.
P.A.F. (=Platelet Activating Factor=Platelet Aggregation Factor) is a phospholipid mediator which has a multiplicity of actions. The activation of blood platelet aggregation results in the induction of long-lasting bronchoconstrictions and hyperreactivity of the respiratory passages.
In this test, the effect of the test substances on platelet aggregation induced by addition of P.A.F. in a platelet suspension obtained from rabbit blood was investigated according to the method described by Mikashima et al. (Jap. J. Pharmacol. 44 (1987) 387-391).
A suspension of platelets obtained from rabbit blood was used which contains 4×10^9 platelets/ml in a modified Tyrode buffer solution (=Tyrode solution with the addition of 1.3 mM/l of CaCl2 and 2.5 g/l of gelatine) adjusted to pH 7.4. Tyrode solution is an aqueous solution containing, per liter, 136.9 mmole of NaCl, 2.68 mmole of KCl, 2.31 mmole of CaCl2, 1.0 mmole of MgCl2, 11.9 mmole of NaHCO3, 1.45 mmole of NaH2 PO4 and 5.55 mmole of glucose. The platelets were concentrated from 10 ml blood samples of three rabbits (New Zealand hybrids, body weight 3-4 kg) in each case. To accomplish this, the blood samples were treated with ethylenediaminetetraacetic acid and washed according to the method of Artley et al. (Brit. J. Haematol. 19 (1970), 7-17). A platelet-rich plasma was first separated by centrifugation (20 minutes at 400×g). The platelets were separated from the plasma by repeated centrifugation for 15 minutes at 1400×g.After the centrifugation, the blood platelets remaining in the sediment were resuspended in a Tyrode buffer solution (but without calcium). 0.4 mmole of lysine acetylsalicylate was then added, and the blood platelets were sedimented again after 15 minutes. The sediment was resuspended in the aforementioned modified Tyrode buffer solution, and the number of platelets in the suspension obtained was adjusted to the desired content.
A 40×10^-9 molar P.A.F. solution was employed as a reagent. This solution was prepared from a 1.8×10^-3 molar stock solution in chloroform. To do this, a 10 μl sample of the stock solution was evaporated to dryness and dissolved again in 180 μl of the modified Tyrode buffer solution, to which 0.25% of lipid-free bovine serum albumin had been added. 10^-5 molar working solutions were then prepared from this and stored frozen. Samples of these solutions were appropriately diluted for tests.
In order to carry out the test, 50 μl of the blood platelet suspension and 10 μl of a 40×10^-5 molar solution of the compound to be investigated were added to […] of the modified Tyrode buffer solution with stirring (1000 rpm) in an aggregation tube provided with a small magnetic stirrer. This corresponded to a final test substance concentration of 10^-5 mole/l. After a preincubation time of 90 seconds, 10 μl of the P.A.F. preparation were added. For 4-5 minutes, the aggregation occurring in the aggregation tube was measured by means of a computerized aggregometer.
The aggregation occurring in the test tubes containing only the platelet suspension is rated as 0%. The aggregation occurring in the test tubes containing platelet suspension and P.A.F. preparation, in which a P.A.F.-induced increase in platelet aggregation takes place, is rated as 100%. The aggregation still occurring after addition of the test substances is measured, and from this the inhibition of the P.A.F.-inducedincrease in aggregation which takes place is calculated in %.

A word on the inhibition: it is how much of the control response was suppressed.

For `Cc1ccnc(N2CCN(CCC3Cn4c(-c5ccc(O)cc5)c(C)c5c(C)cc(C)c(c54)O3)CC2)c1` (stereo not drawn) [Example 70], in assay [1], the “In vitro inhibitory activity on LTB4 formation in rat PMNs stimulated by calcium ionophore A23187” value was found to be 68%. Besides, the inhibition at 10 µM in assay [2] came out at 93%. For `Cc1ccnc(N2CCN(CC3Cn4c(-c5ccc(O)cc5)c(C)c5cccc(c54)O3)CC2)c1` (stereo not drawn) [Example 14], in that order: 90% and 100%. As for `Cc1c(-c2ccc(O)cc2)n2c3c(cccc13)OC(CCN1CCN(c3ccc(F)cc3)CC1)C2` (stereo not drawn) [Example 24], the “In vitro inhibitory activity on LTB4 formation in rat PMNs stimulated by calcium ionophore A23187” value in assay [1] was found to be 73%.

As to `COc1ccc(-c2c(C)c3c(F)ccc4c3n2CC(CCN2CCN(c3cc(C)ccn3)CC2)O4)cc1` (stereo not drawn) [Example 51], the inhibition at 10 µM in assay [2] turned out to be 65%. Take `COc1ccc2c3c1c(C)c(-c1ccc(O)cc1)n3CC(CCC(=O)N1CCN(c3cc(C)ccn3)CC1)O2` (stereo not drawn) [Example 68]: the “In vitro inhibitory activity on LTB4 formation in rat PMNs stimulated by calcium ionophore A23187” value in assay [1] is given as 90%. Besides, the inhibition at 10 µM in assay [2] came to 96%. Consider `Cc1cccnc1N1CCN(C(=O)CCC2Cn3c(-c4ccc(O)cc4)c(C)c4cccc(c43)O2)CC1` (stereo not drawn) [Example 37], for which, in assay [1], the “In vitro inhibitory activity on LTB4 formation in rat PMNs stimulated by calcium ionophore A23187” value is recorded as 100%. In addition, the inhibition at 10 µM in assay [2] turned out to be 48%. Turning to `Cc1ccnc(N2CCN(CCCCC3Cn4c(-c5cc(C)c(O)c(C)c5)c(C)c5cccc(c54)S3)CC2)c1` (stereo not drawn) [Example 63], in assay [2], the inhibition at 10 µM was 80%. Consider `COc1ccc(-c2c(C)c3cccc4c3n2CC(CCC(=O)N2CCN(c3cc(C)ccn3)CC2)O4)cc1` (stereo not drawn) [Example 6, 2,3-Dihydro-5-(4-methoxyphenyl)-6-methyl-2-[3-(4-(4-methylpyridin-2-yl)piperazin-1-yl)-3-oxopropyl]pyrrolo[1,2,3-de]-1,4-benzoxazine], for which the inhibition at 10 µM in assay [2] stood at 100%. Regarding `Cc1ccc(N2CCN(CCCC3Cn4c(-c5ccc(O)cc5)c(C)c5cccc(c54)O3)CC2)nc1` (stereo not drawn) [Example 55], the “In vitro inhibitory activity on LTB4 formation in rat PMNs stimulated by calcium ionophore A23187” value in assay [1] turned out to be 63%. As to `Cc1cccc(N2CCN(C(=O)CCC3Cn4c(-c5ccc(O)cc5)c(C)c5cccc(c54)O3)CC2)n1` (stereo not drawn) [Example 57], the “In vitro inhibitory activity on LTB4 formation in rat PMNs stimulated by calcium ionophore A23187” value in assay [1] is 85%.

Consider `Cc1c(-c2ccc(O)cc2)n2c3c(cccc13)OC(CCCN1CCN(c3ccccn3)CC1)C2` (stereo not drawn) [Example 56], for which, in assay [1], the “In vitro inhibitory activity on LTB4 formation in rat PMNs stimulated by calcium ionophore A23187” value is reported as 76%. With `Cc1ccnc(N2CCN(CCC3Cn4c(-c5cc(C)c(O)c(C)c5)c(C)c5c(Cl)ccc(c54)O3)CC2)c1` (stereo not drawn) [Example 48], in assay [2], the inhibition at 10 µM amounted to 69%.

As to `COc1ccc(-c2c(C)c3cccc4c3n2CC(CCN2CCN(c3cc(C)ccn3)CC2)O4)cc1` (stereo not drawn) [Example 1, 2,3-dihydro-5-(4-methoxyphenyl)-6-methyl-2-[2-(4-(4-methylpyridin-2-yl)piperazin-1-yl)ethyl]pyrrolo[1,2,3-de]-1,4-benzoxazine], the inhibition at 10 µM in assay [2] came out at 80%.

Turning to `Cc1ccnc(N2CCN(CCC3Cn4c(-c5ccc(O)cc5)c(C)c5cccc(c54)O3)CC2)c1` (stereo not drawn) [Example 2, 2,3-Dihydro-5-(4-hydroxyphenyl)-6-methyl-2-[2-(4-(4-methylpyridin-2-yl)piperazin-1-yl)ethyl]pyrrolo[1,2,3-de]-1,4-benzoxazine], the “In vitro inhibitory activity on LTB4 formation in rat PMNs stimulated by calcium ionophore A23187” value in assay [1] turned out to be 89%. Moreover, the inhibition at 10 µM in assay [2] came out at 97%. As to `COc1ccc(-c2c(C)c3cccc4c3n2CC(CCN2CCN(c3cc(C)ccn3)CC2)O4)cc1O` (stereo not drawn) [Example 52], in assay [1], the “In vitro inhibitory activity on LTB4 formation in rat PMNs stimulated by calcium ionophore A23187” value is 53%. Regarding `Cc1cccc(N2CCN(CCCC3Cn4c(-c5ccc(O)cc5)c(C)c5cccc(c54)O3)CC2)n1` (stereo not drawn) [Example 58], in assay [1], the “In vitro inhibitory activity on LTB4 formation in rat PMNs stimulated by calcium ionophore A23187” value came out at 54%.
